Assay: xn = mol fraction of the nth substance listed
Conditions: Liquid

COC(=O)OC [dimethyl carbonate] + C1CCCCC1
mass density [kg/m3]
Conditions | x1 = 0.1 | x1 = 0.2 | x1 = 0.3 | x1 = 0.4 | x1 = 0.5 | x1 = 0.6 | x1 = 0.7 | x1 = 0.8 | x1 = 0.9 | x1 = 1
293.15 K, 100 kPa | 797.9 | 818.3 | 842.3 | 866 | 893.7 | 923.6 | 957.5 | 991 | 1030.4 | 1069.8
293.15 K, 5000 kPa | 802.2 | 822.7 | 846.9 | 870.7 | 898.5 | 928.4 | 962.3 | 995.8 | 1035.1 | 1074.4
293.15 K, 10000 kPa | 806.2 | 827 | 851.2 | 875.3 | 903.1 | 933 | 966.9 | 1000.3 | 1039.5 | 1078.6
293.15 K, 20000 kPa | 813.9 | 835 | 859.6 | 883.9 | 911.8 | 941.8 | 975.7 | 1009 | 1048 | 1086.9
293.15 K, 30000 kPa | 821.3 | 842.7 | 867.5 | 892 | 920 | 950 | 983.8 | 1017.1 | 1055.8 | 1094.5
293.15 K, 40000 kPa | 828.5 | 850.2 | 875.2 | 899.8 | 928 | 958 | 991.8 | 1025 | 1063.5 | 1101.9
298.15 K, 100 kPa | 792.3 | 812.5 | 836.3 | 860 | 887.4 | 917 | 950.8 | 984.2 | 1023.2 | 1063.2
298.15 K, 5000 kPa | 796.9 | 817.3 | 841.3 | 865.1 | 892.6 | 922.2 | 956 | 989.4 | 1028.2 | 1068
298.15 K, 10000 kPa | 801.2 | 821.8 | 846 | 870 | 897.5 | 927.1 | 960.8 | 994.2 | 1032.8 | 1072.4
298.15 K, 20000 kPa | 809.2 | 830.2 | 854.6 | 878.8 | 906.5 | 936.1 | 969.8 | 1003.1 | 1041.5 | 1080.8
298.15 K, 30000 kPa | 816.5 | 837.8 | 862.5 | 887 | 914.8 | 944.5 | 978.2 | 1011.4 | 1049.7 | 1088.7
298.15 K, 40000 kPa | 823.2 | 844.8 | 869.8 | 894.5 | 922.5 | 952.3 | 986.1 | 1019.3 | 1057.4 | 1096.2
303.15 K, 100 kPa | 786.9 | 806.9 | 830.4 | 854.1 | 881.2 | 910.1 | 944.1 | 977.4 | 1015.8 | 1056.5
303.15 K, 5000 kPa | 791.4 | 811.7 | 835.4 | 859.2 | 886.4 | 915.4 | 949.3 | 982.6 | 1020.9 | 1061.3
303.15 K, 10000 kPa | 796 | 816.5 | 840.4 | 864.4 | 891.6 | 920.6 | 954.5 | 987.7 | 1025.8 | 1065
303.15 K, 20000 kPa | 804.5 | 825.3 | 849.5 | 873.8 | 901.2 | 930.3 | 964.1 | 997.1 | 1035 | 1074.7
303.15 K, 30000 kPa | 812.1 | 833.4 | 857.9 | 882.3 | 909.9 | 939.1 | 972.8 | 1005.8 | 1043.6 | 1082.9
303.15 K, 40000 kPa | 819 | 840.7 | 865.4 | 890.1 | 917.8 | 947.2 | 980.9 | 1013.8 | 1051.4 | 1090.4
308.15 K, 100 kPa | 781.2 | 801.4 | 824.4 | 847.9 | 874.8 | 903.4 | 936.9 | 969.7 | 1008.6 | 1049.8
308.15 K, 5000 kPa | 786.1 | 806.5 | 829.7 | 853.4 | 880.3 | 908.9 | 942.3 | 975.1 | 1013.7 | 1054.6
308.15 K, 10000 kPa | 790.8 | 811.4 | 834.8 | 858.6 | 885.6 | 914.2 | 947.7 | 980.4 | 1018.8 | 1059.4
308.15 K, 20000 kPa | 799.5 | 820.5 | 844.2 | 868.3 | 895.5 | 924.2 | 957.6 | 990.2 | 1028.4 | 1068.5
308.15 K, 30000 kPa | 807.4 | 828.7 | 852.8 | 877.1 | 904.4 | 933.3 | 966.7 | 999.3 | 1037.3 | 1077
308.15 K, 40000 kPa | 814.6 | 836.3 | 860.6 | 885.2 | 912.7 | 941.7 | 975 | 1007.6 | 1045.4 | 1084.8
313.15 K, 100 kPa | 775.6 | 795.8 | 818.5 | 841.9 | 868.6 | 896.7 | 929.7 | 962.3 | 1001.1 | 1043
313.15 K, 5000 kPa | 780.8 | 801.3 | 824.1 | 847.7 | 874.4 | 902.6 | 935.5 | 968 | 1006.6 | 1048.1
313.15 K, 10000 kPa | 785.6 | 806.2 | 829.3 | 853 | 879.8 | 908.1 | 941 | 973.5 | 1011.9 | 1053
313.15 K, 20000 kPa | 794.8 | 815.8 | 839.2 | 863.2 | 890.2 | 918.5 | 951.4 | 983.8 | 1021.8 | 1062.3
313.15 K, 30000 kPa | 802.9 | 824.2 | 848 | 872.2 | 899.4 | 927.9 | 960.8 | 993.1 | 1030.9 | 1071
313.15 K, 40000 kPa | 810.5 | 832.1 | 856.2 | 880.7 | 908 | 936.7 | 969.5 | 1001.9 | 1039.4 | 1079
